The test system of this test is BDF1 mice, Friend leukemia sc, tumor weight T/C. Briefly: NCI In Vivo Anticancer Drug Screen. Data for tumor model Friend Virus Leukemia (Solid) (subcutaneous) in B6D2F1 (BDF1) mice. As to conditions: endpoint: mean tumor weight, schedule: Q01DX011 (ip), higher = larger tumour. The protocol:
The antitumor activity of compounds was measured in mice bearing transplantable tumors. Survival or tumor size were measured and the results are expressed as the measurement made in the treated group (T) divided by the measurement made in the vehicle treated control group (C). The tumor model used in this assay is Friend Virus Leukemia (Solid) (subcutaneous) in B6D2F1 (BDF1) mice

Setting [1] is: dose: 3.0 mg/kg/injection, vehicle: carboxymethylcellulose (CMC).
Where [2] appears, read: dose: 6.0 mg/kg/injection, vehicle: carboxymethylcellulose (CMC).
[3] abbreviates: dose: 50.0 mg/kg/injection, vehicle: carboxymethylcellulose (CMC).
The mark [4] stands for this setting: dose: 250.0 mg/kg/injection, vehicle: saline.
Where [5] appears, read: dose: 375.0 mg/kg/injection, vehicle: saline.
The mark [6] stands for this setting: dose: 25.0 mg/kg/injection, vehicle: carboxymethylcellulose (CMC).
[7] abbreviates: dose: 100.0 mg/kg/injection, vehicle: carboxymethylcellulose (CMC).
[8] abbreviates: dose: 1.0 mg/kg/injection, vehicle: carboxymethylcellulose (CMC).
Setting [9] is: dose: 12.0 mg/kg/injection, vehicle: carboxymethylcellulose (CMC).

Where “and” joins values, the source holds several entries; their conditions need not be identical. Equal entries are not always repeated. Results filed as inconclusive are left out. Starred links: 1 amine or outer side, 2 acyl side, 3 side chain; linkers in the order of their positions; H or OH if unused. Positions of bridges follow the written chain, without caps; N, C: chain ends. Non-standard residues stand in square brackets, D forms with d. Residues, ends and D or L forms follow the SMILES beside them. *: point of attachment. X1 = CC(C)C(C)C(C(=O)[*:2])N(C)[*:1]; Picolinoyl(3-OH) = O=C(c1ncccc1O)*; NMePhg = CN[CH](C(=O)O)c1ccccc1; Hyp = O=C(O)[CH]1C[CH](O)CN1; Sar = CNCC(=O)O

As for `CS(=O)(=O)OCCCCOS(C)(=O)=O`, the T/C runs as follows: (dose: 6.62 mg/kg/injection, vehicle: carboxymethylcellulose (CMC)) 107 % of control; (dose: 7.0 mg/kg/injection, vehicle: carboxymethylcellulose (CMC)) 65 % of control; (dose: 13.25 mg/kg/injection, vehicle: carboxymethylcellulose (CMC)) 68 % of control; (dose: 14.0 mg/kg/injection, vehicle: carboxymethylcellulose (CMC)) 91 % of control; (dose: 26.5 mg/kg/injection, vehicle: carboxymethylcellulose (CMC)) 110 % of control; (dose: 27.0 mg/kg/injection, vehicle: carboxymethylcellulose (CMC)) 55 % of control. Further, under “dose: 53.0 mg/kg/injection, vehicle: carboxymethylcellulose (CMC)”, the T/C was 66 % of control.
`O=C(O)CCCc1ccc(N(CCCl)CCCl)cc1`: the T/C (dose: 1.87 mg/kg/injection, vehicle: carboxymethylcellulose (CMC)) is 93 % of control; the T/C (dose: 7.5 mg/kg/injection, vehicle: carboxymethylcellulose (CMC)) is 76 % of control and 91 % of control.
`CCSCCC(N)C(=O)O` (centres undefined): the T/C reads like this: (dose: 10.2 mg/kg/injection, vehicle: carboxymethylcellulose (CMC)) 114 % of control; (dose: 20.5 mg/kg/injection, vehicle: carboxymethylcellulose (CMC)) 80 % of control; (dose: 41.0 mg/kg/injection, vehicle: carboxymethylcellulose (CMC)) 109 % of control; (dose: 82.0 mg/kg/injection, vehicle: carboxymethylcellulose (CMC)) 111 % of control.
On to `CCCNC(=NC)c1ccc(NC(=O)c2ccc(C(=O)Nc3ccc(C(=NC)NCCC)cc3)cc2)cc1`, for which the T/C under setting [1] is 80 % of control and the T/C under setting [2] is 65 % of control.
Regarding `O=C(O)c1ccc(-c2ccccc2)cc1`, the T/C under setting [3] is 103 % of control.
In the case of `CCN(CC)CCNc1ccc([N+](=O)[O-])c2sc3ccccc3c(=O)c12`, the T/C is 87 % of control (dose: 20.0 mg/kg/injection, vehicle: saline) and 110 % of control (dose: 40.0 mg/kg/injection, vehicle: saline).
In the case of `O=C1CN(/N=C\c2ccc([N+](=O)[O-])o2)C(=O)N1`, the T/C reads like this: (dose: 4.7 mg/kg/injection, vehicle: carboxymethylcellulose (CMC)) 101 % of control; (dose: 9.5 mg/kg/injection, vehicle: carboxymethylcellulose (CMC)) 91 % of control and 96 % of control; (dose: 19.0 mg/kg/injection, vehicle: carboxymethylcellulose (CMC)) 96 % of control and 100 % of control.
`CCOC(=O)NP(=O)(N1CC1(C)C)N1CC1(C)C` (centres undefined): the T/C reads like this: (dose: 125.0 mg/kg/injection, vehicle: saline) 73 % of control; (dose: 187.0 mg/kg/injection, vehicle: saline) 101 % of control; under setting [4], 65 % of control; under setting [5], 24 % of control.
Consider `CC(C)CC1NC(=O)C(NC(=O)c2ncccc2O)C(C)OC(=O)C(c2ccccc2)N(C)C(=O)C(C)NC(=O)C(C(C)C(C)C)N(C)C(=O)CN(C)C(=O)C2CC(O)CN2C1=O` (centres undefined) ({Picolinoyl(3-OH)}-TL[Hyp][Sar][X1]A[NMePhg]; ester 1-C; configuration not given here), for which the T/C by setting is: under setting [6], 57 % of control; under setting [3], 49 % of control; under setting [7], 64 % of control; (dose: 200.0 mg/kg/injection, vehicle: carboxymethylcellulose (CMC)) 39 % of control.
`NC(=O)N(CCCl)N=O`: the T/C reads like this: under setting [8], 104 % of control; (dose: 2.0 mg/kg/injection, vehicle: carboxymethylcellulose (CMC)) 101 % of control; (dose: 4.0 mg/kg/injection, vehicle: carboxymethylcellulose (CMC)) 78 % of control.
For the molecule `CCN(CC)c1ccc(/C=C/c2ccnc3ccccc23)cc1`, the T/C reads like this: (dose: 1.5 mg/kg/injection, vehicle: carboxymethylcellulose (CMC)) 202 % of control; under setting [1], 280 % of control; under setting [9], 106 % of control.
On to `CCCCSc1nc(N)nc2c1ncn2CC(C)CC` (centres undefined), for which the T/C by setting is: (dose: 125.0 mg/kg/injection, vehicle: carboxymethylcellulose (CMC)) 68 % of control; (dose: 250.0 mg/kg/injection, vehicle: carboxymethylcellulose (CMC)) 75 % of control; (dose: 500.0 mg/kg/injection, vehicle: carboxymethylcellulose (CMC)) 23 % of control.
Turning to `CN(C)N=Nc1n[nH]nc1C(N)=O`, the T/C by setting is: under setting [4], 75 % of control; under setting [5], 40 % of control.
On to `CC[C@]1(O)C[C@H]2CN(CCc3c([nH]c4ccccc34)[C@@](C(=O)OC)(c3cc4c(cc3OC)N(C)[C@H]3[C@@](O)(C(=O)OC)[C@H](OC(C)=O)[C@]5(CC)C=CCN6CC[C@]43[C@@H]65)C2)C1`, for which the T/C reads like this: (dose: 0.12 mg/kg/injection, vehicle: carboxymethylcellulose (CMC)) 103 % of control; (dose: 0.24 mg/kg/injection, vehicle: carboxymethylcellulose (CMC)) 53 % of control.
As for `CSc1ncc(Br)c(Sc2nc(N)nc3nc[nH]c23)n1`, the T/C runs as follows: (dose: 3.12 mg/kg/injection, vehicle: carboxymethylcellulose (CMC)) 92 % of control; (dose: 6.25 mg/kg/injection, vehicle: carboxymethylcellulose (CMC)) 81 % of control; (dose: 12.5 mg/kg/injection, vehicle: carboxymethylcellulose (CMC)) 51 % of control.
Take `O=C1C(=O)C(Cl)=C(Cl)C(Cl)=C1Cl`: the T/C by setting is: (dose: 15.0 mg/kg/injection, vehicle: carboxymethylcellulose (CMC)) 108 % of control; (dose: 30.0 mg/kg/injection, vehicle: carboxymethylcellulose (CMC)) 90 % of control; (dose: 60.0 mg/kg/injection, vehicle: carboxymethylcellulose (CMC)) 89 % of control.
`Nc1nc(SCc2ccccc2Cl)c2[nH]cnc2n1`: the T/C runs as follows: under setting [8], 88 % of control; under setting [1], 77 % of control; under setting [2], 67 % of control; under setting [9], 28 % of control; under setting [6], 18 % of control; under setting [3], 7 % of control. Moreover, under setting [7], the T/C was 2 % of control.
In the case of `CCNc1nncs1`, the T/C by setting is: (dose: 8.62 mg/kg/injection, vehicle: carboxymethylcellulose (CMC)) 122 % of control; (dose: 17.25 mg/kg/injection, vehicle: carboxymethylcellulose (CMC)) 107 % of control; (dose: 34.5 mg/kg/injection, vehicle: carboxymethylcellulose (CMC)) 193 % of control; (dose: 69.0 mg/kg/injection, vehicle: carboxymethylcellulose (CMC)) 112 % of control.

Values taken from PubChem BioAssay AID228 (DTP/NCI, 2004).
